Results published in paper PMC12391581 (Antiviral Research, 2025).
Read-outs that look alike come from different tables or passages of the source.

Experiments:
[1] = system: B/Victoria-lineage viruses; type: cell-based
[2] = system: neuraminidase (NA) of B/Victoria-lineage viruses; type: biochemical, influenza B/Victoria-lineage virus
[3] = system: neuraminidase (NA) of A(H3N2) viruses; settings: cited from earlier work
[4] = system: neuraminidase (NA) of B/Victoria-lineage viruses; settings: cited from earlier work

Compound | EC50 fold-change compared to reference median EC50 values [1] | NAI inhibition phenotype (NI/RI/HRI) [2] | NAI inhibition phenotype (NI/RI/HRI) [3] | NAI inhibition phenotype (NI/RI/HRI) [4]
COC(=O)OCOc1c2n(ccc1=O)N([C@@H]1c3ccccc3SCc3c1ccc(F)c3F)[C@@H]1COCCN1C2=O [Baloxavir, baloxavir marboxil] | 3.09–7.93 fold | – | – | –
CCOC(=O)C1=C[C@@H](OC(CC)CC)[C@H](NC(C)=O)[C@@H](N)C1 [Oseltamivir, oseltamivir] | – | RI (key: normal inhibition (NI) is a <5-fold increase in the NAI IC50; RI is a 5- to 50-fold increase; HRI is a >50-fold increase) | – | –
CC(=O)N[C@H]1[C@H]([C@H](O)[C@H](O)CO)OC(C(=O)O)=C[C@@H]1N=C(N)N [Zanamivir, zanamivir] | – | RI (key: normal inhibition (NI) is a <5-fold increase in the NAI IC50; RI is a 5- to 50-fold increase; HRI is a >50-fold increase) | NI/RI | NI/RI
